Data as given in PubChem BioAssay AID248 (DTP/NCI, 2004).
Values joined by “and” are separate entries in the source; they are usually repeats but may differ in a detail not shown here. Equal entries are not always repeated. Toxic doses and inconclusive results are not listed. Cut-off read from the data, not from the text of the source: active = T/C of 150% or more; inactive = T/C below 125%.

Test system: L1210 leukemia ip in BDF1 mice, survival T/C
Assay: NCI In Vivo Anticancer Drug Screen. Data for tumor model L1210 Leukemia (intraperitoneal) in B6D2F1 (BDF1) mice
Conditions: endpoint: mean survival time, higher = longer survival
Method in brief: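 Tumor was transplanted into mice, which were then dosed with test compound or vehicle alone. Survival was recorded for each group, and the treated figure was expressed relative to the control figure.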

Measured: T/C

[N-]=[N+]=CC(=O)CCC(N)C(=O)O (centres undefined)
active: dose: 0.1 mg/kg/injection, schedule: Q01DX015 (ip), vehicle: other 168 % of control | dose: 0.1 mg/kg/injection, schedule: Q01DX015 (ip), vehicle: water 154 % of control | dose: 0.2 mg/kg/injection, schedule: Q01DX009 (oral), vehicle: saline 150 % of control | dose: 0.2 mg/kg/injection, schedule: Q01DX015 (ip), vehicle: other 210 % of control | dose: 0.2 mg/kg/injection, schedule: Q01DX015 (ip), vehicle: water 156 % of control | dose: 0.25 mg/kg/injection, schedule: Q01DX009 (oral), vehicle: saline 164 % of control | dose: 0.39 mg/kg/injection, schedule: Q03HX016 (ip), vehicle: saline 150 % of control | dose: 0.39 mg/kg/injection, schedule: Q03HX024 (ip), vehicle: saline 184 % of control | dose: 0.4 mg/kg/injection, schedule: Q01DX015 (ip), vehicle: water 218 % of control | dose: 0.4 mg/kg/injection, schedule: Q02DX005 (oral), vehicle: saline 162 % of control | dose: 0.6 mg/kg/injection, schedule: Q01DX015 (ip), vehicle: water 168 % of control | dose: 0.63 mg/kg/injection, schedule: Q02DX008 (ip), vehicle: water 156 % of control | dose: 0.78 mg/kg/injection, schedule: Q03HX016 (ip), vehicle: saline 165 % of control | dose: 0.78 mg/kg/injection, schedule: Q03HX024 (ip), vehicle: saline 194 % of control | dose: 0.8 mg/kg/injection, schedule: Q02DX005 (oral), vehicle: saline 150 % of control | dose: 1.25 mg/kg/injection, schedule: Q02DX008 (ip), vehicle: water 180 % of control | dose: 1.25 mg/kg/injection, schedule: Q02DX008 (oral), vehicle: water 162 % of control | dose: 1.56 mg/kg/injection, schedule: Q03HX016 (ip), vehicle: saline 160 % of control | dose: 1.56 mg/kg/injection, schedule: Q03HX024 (ip), vehicle: saline 174 % of control | dose: 1.6 mg/kg/injection, schedule: Q02DX005 (oral), vehicle: saline 167 % of control | dose: 2.5 mg/kg/injection, schedule: Q02DX008 (ip), vehicle: other 187 % of control | dose: 2.5 mg/kg/injection, schedule: Q02DX008 (oral), vehicle: other 156 % of control | dose: 2.5 mg/kg/injection, schedule: Q02DX008 (oral), vehicle: water 205 % of control | dose: 3.12 mg/kg/injection, schedule: Q04DX003 (ip), vehicle: saline 150 % of control | dose: 3.2 mg/kg/injection, schedule: Q02DX005 (oral), vehicle: saline 153 % of control | dose: 5.0 mg/kg/injection, schedule: Q02DX008 (ip), vehicle: other 216 % of control | dose: 5.0 mg/kg/injection, schedule: Q02DX008 (oral), vehicle: other 169 % of control | dose: 6.25 mg/kg/injection, schedule: Q04DX003 (ip), vehicle: saline 170 % of control | dose: 6.4 mg/kg/injection, schedule: Q02DX005 (oral), vehicle: saline 179 % of control | dose: 10.0 mg/kg/injection, schedule: Q02DX008 (oral), vehicle: other 205 % of control | dose: 12.5 mg/kg/injection, schedule: Q04DX003 (ip), vehicle: saline 181 % of control | dose: 12.5 mg/kg/injection, schedule: Q08DX002 (ip), vehicle: saline 150 % of control | dose: 12.8 mg/kg/injection, schedule: Q02DX005 (oral), vehicle: saline 185 % of control | dose: 15.0 mg/kg/injection, schedule: Q02DX008 (oral), vehicle: other 184 % of control | dose: 20.0 mg/kg/injection, schedule: Q02DX008 (oral), vehicle: other 197 % of control | dose: 25.0 mg/kg/injection, schedule: Q08DX002 (ip), vehicle: saline 151 % of control | dose: 25.0 mg/kg/injection, schedule: Q## X003 (ip), vehicle: saline 167 % of control | dose: 26.0 mg/kg/injection, schedule: Q02DX005 (oral), vehicle: saline 187 % of control | dose: 50.0 mg/kg/injection, schedule: Q## X002 (ip), vehicle: saline 165 % of control | dose: 100.0 mg/kg/injection, schedule: Q01DX001 (ip), vehicle: saline 156 % of control | dose: 100.0 mg/kg/injection, schedule: Q## X002 (ip), vehicle: saline 168 % of control | dose: 150.0 mg/kg/injection, schedule: Q01DX001 (ip), vehicle: water 159 % of control | dose: 200.0 mg/kg/injection, schedule: Q01DX001 (ip), vehicle: water 151 % of control
inactive: dose: 0.01 mg/kg/injection, schedule: Q01DX015 (ip), vehicle: water 101 % of control | dose: 0.03 mg/kg/injection, schedule: Q01DX015 (ip), vehicle: water 118 % of control | dose: 0.05 mg/kg/injection, schedule: Q01DX009 (ip), vehicle: saline 118 % of control | dose: 0.06 mg/kg/injection, schedule: Q01DX009 (oral), vehicle: saline 114 % of control | dose: 0.2 mg/kg/injection, schedule: Q01DX009 (ip), vehicle: saline 120 % of control | dose: 0.4 mg/kg/injection, schedule: Q01DX009 (ip), vehicle: saline 104 % of control | dose: 3.12 mg/kg/injection, schedule: Q03HX024 (ip), vehicle: saline 90 % of control | dose: 15.0 mg/kg/injection, schedule: Q02DX008 (ip), vehicle: other 104 % of control | dose: 25.0 mg/kg/injection, schedule: Q01DX001 (ip), vehicle: water 123 % of control | dose: 50.0 mg/kg/injection, schedule: Q## X016 (ip), vehicle: saline 98 % of control | dose: 100.0 mg/kg/injection, schedule: Q## X003 (ip), vehicle: saline 92 % of control | dose: 200.0 mg/kg/injection, schedule: Q01DX001 (ip), vehicle: saline 110 % of control | dose: 200.0 mg/kg/injection, schedule: Q## X002 (ip), vehicle: saline 97 % of control | dose: 400.0 mg/kg/injection, schedule: Q## X002 (ip), vehicle: saline 89 % of control | dose: 25.0 micrograms/kg/injection, schedule: Q01DX010 (ip), vehicle: saline 98 % of control | dose: 50.0 micrograms/kg/injection, schedule: Q01DX010 (ip), vehicle: saline 112 % of control

CCOC(=O)N1C=Cn2c(cnc2C)C1O (centres undefined)
inactive: dose: 50.0 mg/kg/injection, schedule: Q01DX009 (ip), vehicle: saline 94 % of control | dose: 100.0 mg/kg/injection, schedule: Q01DX009 (ip), vehicle: saline 94 % of control | dose: 100.0 mg/kg/injection, schedule: Q01DX009 (ip), vehicle: water 102 % of control | dose: 100.0 mg/kg/injection, schedule: Q04DX003 (ip), vehicle: saline 102 % of control | dose: 200.0 mg/kg/injection, schedule: Q01DX009 (ip), vehicle: saline 100 % of control and 91 % of control | dose: 200.0 mg/kg/injection, schedule: Q01DX009 (ip), vehicle: water 90 % of control | dose: 200.0 mg/kg/injection, schedule: Q04DX003 (ip), vehicle: saline 109 % of control | dose: 400.0 mg/kg/injection, schedule: Q01DX009 (ip), vehicle: water 93 % of control | dose: 400.0 mg/kg/injection, schedule: Q04DX003 (ip), vehicle: saline 107 % of control

CC1C(=O)CCC2(C)CCCCC12 (centres undefined)
inactive: dose: 75.0 mg/kg/injection, schedule: Q01DX001 (ip), vehicle: other 103 % of control | dose: 150.0 mg/kg/injection, schedule: Q01DX001 (ip), vehicle: other 101 % of control | dose: 300.0 mg/kg/injection, schedule: Q01DX001 (ip), vehicle: other 103 % of control

CC(=O)n1c(O)c(N=Nc2ccccc2[N+](=O)[O-])c2ccccc21
inactive: dose: 100.0 mg/kg/injection, schedule: Q01DX001 (ip), vehicle: other 92 % of control | dose: 200.0 mg/kg/injection, schedule: Q01DX001 (ip), vehicle: other 93 % of control | dose: 400.0 mg/kg/injection, schedule: Q01DX001 (ip), vehicle: other 98 % of control

CC1CC(=O)NN1C(O)c1ccc2c(c1)OCO2 (centres undefined)
inactive: dose: 100.0 mg/kg/injection, schedule: Q04DX002 (ip), vehicle: Klucel (hydroxypropylcellulose) (HPC) 97 % of control | dose: 200.0 mg/kg/injection, schedule: Q04DX002 (ip), vehicle: Klucel (hydroxypropylcellulose) (HPC) 97 % of control

CCOP(=S)(OCC)SC(C)(C)C
inactive: dose: 25.0 mg/kg/injection, schedule: Q04DX003 (ip), vehicle: saline with Tween-80 95 % of control | dose: 50.0 mg/kg/injection, schedule: Q04DX003 (ip), vehicle: saline with Tween-80 103 % of control | dose: 100.0 mg/kg/injection, schedule: Q04DX003 (ip), vehicle: saline with Tween-80 104 % of control and 108 % of control
